# Experimental data taken from ChEMBL document CHEMBL2331282, “9-[2-(R)-(Phosphonomethoxy)propyl]-2,6-diaminopurine (R)-PMPDAP and its prodrugs: optimized preparation, including identification of by-products formed, and antiviral evaluation in vitro” (Bioorg Med Chem, 2013).
# Tested on: Vaccinia virus
# Experiment: Antiviral activity against Vaccinia virus infected in human HEL cells assessed as reduction of virus-induced cytopathogenicity
# Type: functional, organism-based
# Conditions: Orthopoxvirus vaccinia
row,Compound,EC50 [µg/mL]
1,C[C@@H](O)CNc1nc(N)c2ncn(C[C@@H](C)O)c2n1,> 100
2,C[C@@H](O)CNc1nc(N)nc2c1ncn2C[C@@H](C)O,> 100
3,C[C@H](Cn1cnc2c(NCP(=O)(O)O)nc(N)nc21)OCP(=O)(O)O,> 100
